According to patent US20260128119A1, “SCREENING METHODS FOR ACINETOBACTER BAUMANNII SPOT ENZYME MODULATORS” (priority 2022, published 2026):

Legend:
[1] = system: SpoTAb^NTD; assay: Isothermal titration calorimetry (ITC) of ligand binding to SpoTAb^NTD; design: species or system Acinetobacter baumannii
Source text: This is also the case with the specialisation of SpoTAb as a monofunctional hydrolase where the pseudo-SYNTH domain has evolved into a strictly regulatory/structural domain. […] These involve the residues that coordinate adenosine and guanosine (R249 to N241, R277 to E267 and Y329 to N304) and the majority of phosphate-coordinating groups. Crucially, the catalytic residues D272 and Q347 are substituted for S263 and T321, respectively. […]; Roghanian et al., Mol Cell, 2021).
To directly validate the lack of pppGpp-mediated regulation in SpoTAb, we characterised the interaction between pppGpp and SpoTAb^NTD by ITC. […] Following the experimental approach used earlier for SpoTEc (Roghanian et al., Mol Cell, 2021), we next grafted the allosteric site of A. baumannii RelA (^236RelA^246) onto SpoTAb^NTD (replacing ^201SpoTAb^211).
The essential role of the divalent manganese ion Mn^2+ in (p)ppGpp pyrophosphate hydrolysis is well documented for both Rel (Hogg et al., Cell, 2004; Takada et al., Nucleic Acids Res, 2021; Avarbock et al., Biochemistry, 2000; Van Nerom et al., Acta Crystallogr F Struct Biol Commun, 2019) and SpoTEc (Heinemeyer et al., Eur J Biochem, 1978).

[2] = system: SpoTAb; assay: HD (ppGpp hydrolysis) activity of SpoTAb in presence of added factors; format: biochemical, Acinetobacter baumannii; settings: metal-free full-length SpoTAb (completely HD inactive)
Source text: FIG. 1. Full-length monomeric A. baumannii SpoT adopts a compact “mushroom”-shaped HD-active τ-state. (a) Structure of “mushroom”-shaped SpoTAb-ppGpp complex in the τ-state. The domain organization, from N to C terminus: NTD domains hydrolase (HD), pseudo-synthetase (pseudo-SYNTH) and Core, and CTD domains, TGS, Helical (HEL), Zn-finger (ZFD) and RNA recognition motif (RRM). The ppGpp alarmone is labelled. (b) Cartoon representation the SpoTAb. The “stem” of the mushroom is formed by the enzymatic HD domain and the “cap” by the regulatory domains: NTD pseudo-SYNTH domain and the CTD domains. (c) Ribbon representation of the SpoTAb-ppGpp complex. The α6/α7 motif is held in the hydrolysis-compatible position by the folded Core domain and the TGS β-hairpin, with the Core domain communicating allosteric signals to HD from the regulatory domains. […] (e) Analytical size exclusion chromatography (SEC) of SpoTAb supports its monomeric nature in solution. (f) Experimental X-ray scattering (SAXS) analysis of SpoTAb at 8 mg/mL further confirms the monomeric nature of SpoTAb. […] (g) Ab initio envelope of SpoTAb reconstructed from the experimental SAXS data superimposed on the crystal structure.
While the SYNTH and TGS domains are sequestered in the “cap”, the HD hydrolase stands out unconfined and primed for (p)ppGpp hydrolysis. […]

[3] = molecular target: the molecule itself; assay: SEC-SAXS and analytical size exclusion chromatography in solution (oligomeric state, self-association)

Nc1nc2c(ncn2[C@@H]2O[C@H](COP(=O)(O)OP(=O)(O)O)[C@@H](O)[C@H]2O)c(=O)[nH]1 [GDP]
GDP binding by SpoTAb [1]: does not bind

[Mn+2] [Mn^2+]
HD activity upon addition to metal-free enzyme [2]: readily restored

Nc1nc2c(ncn2C2OC(COP(=O)(O)OP(=O)(O)OP(=O)(O)O)C(OP(=O)(O)OP(=O)(O)O)C2O)c(=O)[nH]1 (stereo not shown) [pppGpp, guanosine pentaphosphate]
allosteric binding of pppGpp [1]: does not bind

B1: Acinetobacter baumannii SpoT enzyme (enzyme)
chain: MPGEEVSQAKQQLKLIIDPYLSVSEVEKVLAACDFGDLAHTGITRKSGEPYILHPIAVSCILANMRLDPETLMAALLHDVIEDTQYTKDDIIERFGQTVAELVDGVTKLSQSSDKEYNKAASFRKILQATLQDPRVIIIKLADRYHNMTTLGALRPDKRARIAQETFDIFVPMARLVGMNEMADNLENLCYQNLDLDMFDNVQNALLQTKPERCKYQSIWEQNLAELLHNYHIQGRIKKKNNNIELLRHFVKNEMDLQELTHSHAFEIVLQSIADCDRLVAALKENFQVIQYQDHIRRPLPGGNQSLMIKLKGEKTTLSLTIQTELMRKAARFGVVLGENAPQTCRSAIQASMQNLNTLIDGECAKTTFNDLLDYLHQEKIWVYTPHGQLHELPQGATVVDFAYSASLFLGNHAVGAKVDGEIKPLSTPLVSGQVIEIITDVLATPNPDWLSFINTQKARRALQHVLKDQDIEEQRLVGAQALSRALKLFNRSINDLSDADWLDLLQWRHIDNKDALFEQIAVGDLLPQLVANHLFANDKHPRAENSDRLIQGTEGIDVKYAHCCNPILGDPIQGHLTRRGLIVHRIRCHNLLHEQHLHPENIMPLQWKADDVDDVRFTAYLAIYMAMNDEQVSDLIYQCRKNNAGVEMVHSNEQRTFVNIVVNNRKHIAKVIRDLRMHYGFPRIERLDAPAPQMEISKVS
notes: Full-length wild-type SpoTAb; also called SpoTAb; A. baumannii SpoT
binding result [3]: no binding (tested: 8 mg/mL)
